According to US8518958B2, “Pyrido [2,3-D] pyrimidines and their use as kinase inhibitors” (Forma Therapeutics, Inc., priority 2006, dated 2013):

Columns and labels:
B-Raf delta1-415 = B-Raf delta1-415 (Homo sapiens, UniProt P15056); assay: B-Raf kinase inhibition (MAPH filter plate, 33P-ATP, MEK1 substrate); details: read-out: Biochemical IC50 B-Raf
Procedure, shortened: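 Radiometric filter-binding assay with B-Raf delta1-415 at a level giving 50% turnover, MEK1 substrate and 33P-ATP (12.5 μCi/ml) in 20 mM Mops pH 7.0 with Mg/Mn, 1 h at room temperature. Inhibitor dilution series from 10 μM; EDTA-stopped reactions captured on phosphocellulose filters, counted by scintillation for IC50.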

HT-29 tumor cells = assay: Anti-proliferative activity, SRB assay; assay type: cell-based, human; details: Homo sapiens, HT-29, 72 h, 72 hours exposure, read-out: CELLULAR IC50 HT-29
Procedure, shortened: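 Cells at 3,000-15,000/well, plated 24 h before compound, exposed to a concentration range for 72 hours. Proliferation measured by SRB staining after cold TCA fixation, absorbance at OD570; IC50 estimated from % inhibition versus DMSO-treated cells.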

[1] = target: C-Raf Raf-1 (truncated), active (Homo sapiens, UniProt P04049, Y340D/Y341D); assay: C-Raf kinase inhibition (MAPH assay / IMAP assay); details: read-out: Biochemical IC50 C-Raf
Source text: We characterized the in vitro inhibitory activity against protein kinases of compounds of the present invention by determining their IC50 values (see Table 2).
Kinase: C-Raf Raf-1 (truncated), active (Upstate; cat. no. 14-352)
Reaction Temperature: room temperature
Assay Plate: 96 well U bottom plate (Greiner, 650161)
MultiScreen-PH Plate: 96 well MAPH Filter Plates (Millipore, MAPHNOB50)
Filter Washing Solution: 0.75% H3PO4
Scintillation Liquid: Supermix Liquid Scintillator (PerkinElmer, 1200-439)
Negative Control (C−): 100 mM EDTA, no inhibitor
Positive Control (C+): no inhibitor
Reaction Buffer (Final Concentration):
Final Assay Concentrations:
Kinase: Use kinase conc. yielding 10% ATP turnover as determined in titration experiment.
Adenosine 5′-[γ-^33P]triphosphate: 12.5 μCi/ml (Amersham Biosciences, BF1000)
Substrate: Myelin Basic Protein 57.8 μM (Invitrogen, 13228-010)
Pipetting Sequence: • 1) Add 10 μl 4-fold concentrated substrate+4-fold concentrated ATP in 3-fold concentrated reaction buffer to each well of assay plate • 2) Add 10 μl […] concentrated inhibitor in 4% DMSO in H2O to each well except to C− and C+ wells (starting point: final inhibitor concentration 10 μM; IC50 determination based on dilution series) • 3) Add 10 μl 4% DMSO in H2O to C− and C+ wells • 4) Add 10 μl 500 mM EDTA in H2O to C− wells • 5) Add 10 μl 50 μCi/ml adenosine 5′-[γ-^33P]triphosphate in H2O to each well • 6) Add 10 μl […] concentrated kinase in Reaction Buffer to each well • 7) Incubate 1 hr at room temperature • 8) Add 10 μl 50 mM EDTA in H2O to each well except to C− wells • 9) Prepare MAPH plates by adding 200 μl 0.75% H3PO4 to each well • 10) Exhaust 0.75% H3PO4 using Millipore vacuum station • 11) Add 60 μl 0.75% H3PO4 to each well of MAPH filter plate • 12) Transfer 30 μl sample per well from assay plate to corresponding well of MAPH filter plate • 13) Incubate 30 min at room temperature • 14) Wash each well of MAPH filter plates 3× with 200 μl 0.75% H3PO4 using Millipore vacuum station • 15) Add 20 μl scintillation liquid to each well of MAPH filter plate • 16) Seal MAPH filter plate • 17) Store MAPH filter plate 30 min in darkness • 18) Quantify radioactivity using scintillation counter (MicroBeta, Perkin-Elmer)
Reaction Volume: 8.0108 μl
IMAP Incubation Time: 60 min
Assay Plate: 384 well U bottom, PP, black, low volume (Corning, 3676)
Compound Plate: 384 well U bottom, PS (Falcon, 3995)
IMAP Binding Buffer A: Molecular Devices, R7282
IMAP Binding Buffer B: Molecular Devices, R7283
IMAP Binding Reagent: Molecular Devices, R7207
Negative Control (C−): no kinase, no inhibitor
Reation buffer: 20 mM Hepes, pH 7.5 • 1 mM DTT • 10 mM MnCl2 • 0.01% Brij35
Kinase: Kinase conc. yielding 50% substrate turnover as determined in titration experiment • c-Raf (Upstate 14-352)
Substrate: 5F1-SGQLIDSMANSFV-NH2 400 nM (jpt Peptide Technologies GmbH, Berlin, Germany)
IMAP Binding Solution: 75% IMAP Binding Buffer A • 25% IMAP Binding Buffer B • IMAP Binding Reagent 1:800
Pipetting Sequence: • 1) Add 6 μl 1.33-fold concentrated substrate+1.33-fold concentrated ATP in 1-fold concentrated reaction buffer to each well of assay plate • 2) Add 10.8 nl 740-fold concentrated inhibitor in 100% DMSO to each well except to C− and C+ wells using pintool (CyBio, Jena, Germany) (starting point: final inhibitor concentration 10 μM; IC50 determination based on dilution series) • 3) Add 10.8 nl 100% DMSO to C− and C+ wells using pintool • 4) Add 2 μl reaction buffer to C− wells • 5) Add 2 μl 4-fold concentrated kinase in reaction buffer to each well except C− wells • 6) Incubate according to reaction time at room temperature • 7) Add 15 μl IMAP binding solution to each well • 8) Incubate according to IMAP incubation time at room temperature • 9) Measure fluorescence polarization (Analyst GT, Molecular Devices)

Chain of C-Raf Raf-1 (truncated), active (P04049 306-648 Y340D/Y341D): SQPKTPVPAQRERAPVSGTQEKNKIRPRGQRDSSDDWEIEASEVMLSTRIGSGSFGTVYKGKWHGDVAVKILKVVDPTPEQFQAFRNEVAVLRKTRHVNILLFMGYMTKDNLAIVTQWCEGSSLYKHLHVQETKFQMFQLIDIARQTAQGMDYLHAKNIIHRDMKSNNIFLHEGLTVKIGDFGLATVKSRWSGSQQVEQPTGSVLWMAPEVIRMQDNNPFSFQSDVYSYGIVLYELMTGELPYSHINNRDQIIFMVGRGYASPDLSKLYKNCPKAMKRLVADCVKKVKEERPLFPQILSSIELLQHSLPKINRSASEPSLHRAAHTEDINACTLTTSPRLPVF
Chain of B-Raf delta1-415 (P15056 416-766): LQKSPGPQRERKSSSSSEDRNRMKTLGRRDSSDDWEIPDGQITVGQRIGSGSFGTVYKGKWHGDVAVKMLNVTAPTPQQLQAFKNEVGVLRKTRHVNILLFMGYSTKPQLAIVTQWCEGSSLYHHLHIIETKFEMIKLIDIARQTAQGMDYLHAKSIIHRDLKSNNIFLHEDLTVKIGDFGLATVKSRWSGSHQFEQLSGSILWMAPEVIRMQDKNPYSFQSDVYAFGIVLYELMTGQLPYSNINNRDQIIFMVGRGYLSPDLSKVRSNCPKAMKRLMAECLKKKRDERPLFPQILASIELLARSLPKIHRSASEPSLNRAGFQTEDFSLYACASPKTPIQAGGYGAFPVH

SMILES	IC50 (B-Raf delta1-415)	IC50 (HT-29 tumor cells)	IC50 [1]
COc1cccc(Nc2ncc3cc(-c4c(Cl)cccc4Cl)c(=O)n(OCCCCN)c3n2)c1 [Compound 41, 8-(4-Aminobutoxy)-6-(2,6-dichlorophenyl)-2-(3-methoxyphenylamino)-pyrido[2,3-d]pyrimidin-7-one]	< 0.5 µM	< 1 µM	< 0.1 µM
COn1c(=O)c(-c2ccccc2)cc2cnc(Nc3cccc(CO)c3)nc21 [Compound 43, 2-(3-Hydroxymethylphenylamino)-8-methoxy-6-phenyl-pyrido[2,3-d]pyrimidin-7-one]	< 5 µM	< 10 µM	< 0.1 µM
COc1ccc(OC)c(-c2cc3cnc(Nc4cccc(CO)c4)nc3n(OC)c2=O)c1 [Compound 44, 6-(2,5-Dimethoxyphenyl)-2-(3-hydroxymethylphenylamino)-8-methoxy-pyrido[2,3-d]pyrimidin-7-one]	< 5 µM	> 10 µM	< 0.1 µM
O=c1c(-c2ccccc2Cl)cc2cnc(Nc3ccccc3)nc2n1OCC1CC1 [Compound 49, 6-(2-Chlorophenyl)-8-cyclopropylmethoxy-2-phenylamino-pyrido[2,3-d]pyrimidin-7-one]	> 1 µM	< 10 µM	< 0.1 µM
COc1ccccc1-c1cc2cnc(Nc3ccc(OCCN(C)C)cc3)nc2n(OC)c1=O [Compound 50, 2-(4-(2-Dimethylaminoethoxy)-6-(2-methoxyphenyl)-phenylamino)-8-methoxy-pyrido[2,3-d]pyrimidin-7-one]	> 1 µM	< 10 µM	< 1 µM
COn1c(=O)c(-c2c(F)cccc2C(F)(F)F)cc2cnc(Nc3ccc(N4CCN(C)CC4)cc3)nc21 [Compound 53, 6-(2-Fluoro-6-trifluoromethyl-phenyl)-8-methoxy-2-(4-(4-methylpiperazino)-phenylamino)-pyrido[2,3-d]pyrimidin-7-one]	< 1 µM	< 1 µM	< 1 µM
CC(=O)NCCCOn1c(=O)c(-c2c(Cl)cccc2Cl)cc2cnc(Nc3ccccc3)nc21 [Compound 57, 8-(3-Acetylaminopropyl)oxy-6-(2,6-dichlorophenyl)-2-phenylamino-pyrido[2,3-d]pyrimidin-7-one]	< 1 µM	< 1 µM	< 0.1 µM
COn1c(=O)c(-c2cc(NC(C)=O)ccc2Cl)cc2cnc(Nc3ccccc3)nc21 [Compound 59]	< 0.5 µM	< 10 µM	< 0.1 µM
COc1ccc(OC)c(-c2cc3cnc(Nc4ccccc4)nc3n(OC)c2=O)c1 [Compound 60]	< 10 µM	< 10 µM	< 0.5 µM
COn1c(=O)c(C(=O)Nc2ccccc2)cc2cnc(Nc3ccccc3)nc21 [Compound 61, 8-Methoxy-2-phenylamino-6-phenylaminocarbonyl-pyrido[2,3-d]pyrimidin-7-one]	> 10 µM	< 10 µM	> 10 µM
COn1c(=O)c(-c2cccc(NC(C)=O)c2)cc2cnc(Nc3ccccc3)nc21 [Compound 62]	< 10 µM	< 10 µM	< 0.1 µM
CC(C)(C)On1c(=O)c(-c2ccccc2Cl)cc2cnc(Nc3ccccc3)nc21 [Compound 63, 6-(2-Chlorophenyl)-8-(1,1-dimethyl)ethyloxy-2-phenylamino-pyrido[2,3-d]pyrimidin-7-one]	< 10 µM	> 10 µM	< 10 µM
COn1c(=O)c(-c2ccc(Cl)c(Cl)c2)cc2cnc(Nc3cccc(S(N)(=O)=O)c3)nc21 [Compound 64, 2-(3-Aminosulfonlyphenyl)-amino-6-(3,4-dichlorophenyl)-8-methoxy-pyrido[2,3-d]pyrimidin-7-one]	< 0.5 µM	< 10 µM	< 0.5 µM

The next lines start with the values.

IC50 (B-Raf delta1-415)	IC50 (HT-29 tumor cells)	IC50 [1]	SMILES
< 0.5 µM	< 10 µM	< 0.1 µM	COn1c(=O)c(-c2c(Cl)cccc2Cl)cc2cnc(Nc3cc(CO)ccc3C)nc21 [Compound 45, 6-(2,6-Dichlorophenyl)-2-((2-methyl-5-hydroxymethylphenyl)-amino)-8-methoxy-pyrido[2,3-d]pyrimidin-7-one]
< 0.5 µM	< 10 µM	< 0.1 µM	COn1c(=O)c(-c2c(Cl)cccc2Cl)cc2cnc(N)nc21 [Compound 46, 2-Amino-6-(2,6-dichlorophenyl)-8-methoxy-pyrido[2,3-d]pyrimidin-7-one]
< 0.5 µM	> 10 µM	< 0.1 µM	COCCNc1ncc2cc(-c3c(Cl)cccc3Cl)c(=O)n(OC)c2n1 [Compound 48, 6-(2,6-Dichlorophenyl)-8-methoxy-2-methoxyethylamino-pyrido[2,3-d]pyrimidin-7-one]
< 0.1 µM	< 1 µM	< 0.1 µM	CCOn1c(=O)c(-c2c(F)cccc2Cl)cc2cnc(Nc3ccc(N4CCN(C)CC4)cc3)nc21 [Compound 51, 6-(2-Chloro-6-fluorophenyl)-8-ethoxy-2-(4-(4-methylpiperazino)-phenylamino)-pyrido[2,3-d]pyrimidin-7-one]
< 0.1 µM	< 1 µM	< 0.1 µM	CN1CCN(c2ccc(Nc3ncc4cc(-c5c(F)cccc5Cl)c(=O)n(OCC5CC5)c4n3)cc2)CC1 [Compound 52, 6-(2-Chloro-6-fluorophenyl)-8-cyclopropylmethoxy-2-(4-(4-methylpiperazino)-phenylamino)-pyrido[2,3-d]pyrimidin-7-one]
< 0.5 µM	< 10 µM	< 0.1 µM	COn1c(=O)c(-c2c(Cl)cccc2Cl)cc2cnc(Nc3cc(C(=O)O)n(C)c3)nc21 [Compound 54, 2-(5-Carboxy-1-methyl-pyrrol-3-yl)-amino-6-(2,6-dichlorophenyl)-8-methoxy-pyrido[2,3-d]pyrimidin-7-one]
< 0.5 µM	< 1 µM	< 0.5 µM	NCCCOn1c(=O)c(-c2c(Cl)cccc2Cl)cc2cnc(Nc3ccccc3)nc21 [Compound 55, 8-(3-Aminopropyl)oxy-6-(2,6-dichlorophenyl)-2-phenylamino-pyrido[2,3-d]pyrimidin-7-one]
< 0.5 µM	< 1 µM	< 0.1 µM	NCCCCCOn1c(=O)c(-c2c(Cl)cccc2Cl)cc2cnc(Nc3ccccc3)nc21 [Compound 56, 8-(5-Aminopentyl)oxy-6-(2,6-dichlorophenyl)-2-phenylamino-pyrido[2,3-d]pyrimidin-7-one]
< 0.5 µM	< 1 µM	< 0.5 µM	NCCOCCOn1c(=O)c(-c2c(Cl)cccc2Cl)cc2cnc(Nc3ccccc3)nc21 [Compound 58, 8-(2-(2-Aminoethyloxy)ethyl)oxy-6-(2,6-dichlorophenyl)-2-phenylamino-pyrido[2,3-d]pyrimidin-7-one]
